T1: Aromatase (Homo sapiens, UniProt P11511)
T1 sequence (P11511 whole entry): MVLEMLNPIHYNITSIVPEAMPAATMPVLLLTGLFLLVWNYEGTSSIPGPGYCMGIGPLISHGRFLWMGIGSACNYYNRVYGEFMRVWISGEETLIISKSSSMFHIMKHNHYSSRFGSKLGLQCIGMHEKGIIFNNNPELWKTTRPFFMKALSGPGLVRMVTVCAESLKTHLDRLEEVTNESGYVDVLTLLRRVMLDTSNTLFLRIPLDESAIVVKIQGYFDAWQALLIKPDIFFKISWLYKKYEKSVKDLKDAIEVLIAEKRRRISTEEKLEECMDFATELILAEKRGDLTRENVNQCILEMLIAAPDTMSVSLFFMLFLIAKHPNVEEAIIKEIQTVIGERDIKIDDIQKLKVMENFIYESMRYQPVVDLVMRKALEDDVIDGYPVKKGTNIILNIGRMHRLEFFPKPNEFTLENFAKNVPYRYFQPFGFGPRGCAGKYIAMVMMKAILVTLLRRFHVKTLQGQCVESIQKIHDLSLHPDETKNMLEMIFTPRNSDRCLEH

T2: Aromatase (Rattus norvegicus, UniProt P22443)
T2 sequence (P22443 whole entry): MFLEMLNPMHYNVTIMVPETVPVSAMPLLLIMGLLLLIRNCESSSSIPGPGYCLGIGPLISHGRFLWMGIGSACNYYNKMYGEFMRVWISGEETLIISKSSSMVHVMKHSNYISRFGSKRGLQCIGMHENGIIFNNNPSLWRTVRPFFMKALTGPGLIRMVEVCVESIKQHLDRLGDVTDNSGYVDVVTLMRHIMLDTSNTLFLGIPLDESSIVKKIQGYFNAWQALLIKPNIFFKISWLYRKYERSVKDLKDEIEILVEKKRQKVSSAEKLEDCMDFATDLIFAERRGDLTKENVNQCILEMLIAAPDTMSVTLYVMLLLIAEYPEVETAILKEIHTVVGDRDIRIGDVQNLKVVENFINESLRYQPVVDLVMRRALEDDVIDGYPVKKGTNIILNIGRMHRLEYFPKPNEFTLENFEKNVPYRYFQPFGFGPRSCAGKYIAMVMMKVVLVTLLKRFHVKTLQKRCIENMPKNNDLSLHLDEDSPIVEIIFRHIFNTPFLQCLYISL


Assays:
Aromatase [1] = molecular target: T1, Aromatase
Aromatase [2] = molecular target: T1, Aromatase; test: (§1) Binding affinity for Cytochrome P450 19A1
Aromatase [3] = molecular target: T1, Aromatase; test: Time-dependent irreversible inactivation of human placental Cytochrome P450 19A1
Aromatase [4] = molecular target: T2, Aromatase; test: as §1
Aromatase [5] = molecular target: T2, Aromatase
[6] = substrate: C[C@]12CC[C@H]3[C@@H](CCC4=CC(=O)CC[C@@]43C)[C@@H]1CC[C@@H]2O; test: (§2) Km for Cytochrome P450 19A1
[7] = substrate: C[C@]12CCC(=O)C=C1CC[C@@H]1[C@@H]2CC[C@]2(C)C(=O)CC[C@@H]12; test: as §2
[8] = substrate: C[C@]12CCC(=O)C=C1CCC1C2CC[C@@]2(C)C1C[C@@H](O)[C@@H]2O; test: as §1; design: species or system Homo sapiens
[9] = substrate: C[C@]12CCC(=O)C=C1CC[C@@H]1[C@@H]2CC[C@]2(C)C(=O)CC[C@@H]12; test: as §1; design: species or system Homo sapiens

Row | Molecule | Ki (Aromatase [1]) [nM] | other results
1 | C[C@]12C=CC(=O)C=C1C=C[C@@H]1[C@@H]2CC[C@]2(C)C(=O)CC[C@@H]12 | 180 | 
2 | CC[C@]12CCC(=O)C=C1CCC1C2CC[C@]2(C)C(=O)CCC12 (stereo partly specified) | 9 | 
3 | Clc1ccc(COC(Cn2cccc2)c2ccc(Cl)cc2Cl)cc1 (stereo unspecified) |  | IC50 (Aromatase [2]): 30 nM
4 | C[C@]12CCC(=O)C=C1[C@H](Br)CC1C2CC[C@@]2(C)C1CC[C@@H]2OC(=O)CBr (stereo partly specified) | 25000 | kinact (Aromatase [3]): 0.000457 s⁻¹
5 | C[C@]12CCC(=O)C=C1C[C@@H](Sc1ccc(I)cc1)C1C2CC[C@]2(C)C(=O)CCC12 (stereo partly specified) | 12 | 
6 | Clc1ccc(C2c3ccc(Cl)cc3-c3ncncc32)cc1 (stereo unspecified) |  | Ki (Aromatase [4]): 24 nM
7 | C[C@]12CCC3C(CCC4=CC(=O)CC[C@@]43C3CS3)C1CCC2=O (stereo partly specified) | 75 | 
8 | C[C@]12CCC3C(CCC4=C(O)C(=O)CC[C@@]43C(F)F)C1CCC2=O (stereo partly specified) |  | IC50 (Aromatase [2]): 3300 nM
9 | C[C@]12CCC(=O)C(O)=C1CC[C@@H]1[C@@H]2CC[C@]2(C)C(=O)CC[C@@H]12 [FORMESTANE] | 50 | 
10 | CSC[C@]12CCC(=O)C=C1CCC1C2CC[C@]2(C)C(=O)CCC12 (stereo partly specified) | 1 | 
11 | C[C@]12CCC3C(CCC4=CC(=O)CC[C@@]43C(F)F)C1CCC2=O (stereo partly specified) | 1 | kinact (Aromatase [3]): 0.000383 s⁻¹
12 | C[C@]12C=CC(=O)C=C1CCC1C2CC[C@]2(C)OC(=O)CCC12 (stereo partly specified) | 35000 | 
13 | C[C@]12CCC3C(CCC4=CC(=O)CC[C@]43C3CS3)C1CCC2=O (stereo partly specified) | 1 | 
14 | CC1(C)C[C@@]2(C)C(=CC1=O)CCC1C2CC[C@]2(C)C(=O)CCC12 (stereo partly specified) | 2.3 | 
15 | C[C@@]12CCCC1C1CCC3=CC(=O)C=C[C@]3(C)C1CC2 (stereo partly specified) | 1100 | 
16 | C=C[C@]12CCC(=O)C=C1CCC1C2CC[C@]2(C)C(=O)CCC12 (stereo partly specified) | 3 | 
17 | C[C@]12CCC(=O)C(N)=C1CCC1C2CC[C@]2(C)C(=O)CCC12 (stereo partly specified) | 37 | 
18 | C=C1C=C2CCC3C(CC[C@]4(C)C(=O)CCC34)[C@@]2(C)CC1 (stereo partly specified) | 4.7 | 
19 | C[C@]12CCC(=O)C=C1C[C@@H](Sc1ccc(NC(=O)CBr)cc1)C1C2CC[C@]2(C)C(=O)CCC12 (stereo partly specified) | 33000 | kinact (Aromatase [3]): 0.00247 s⁻¹
20 | C/C=C/[C@]12CCC(=O)C=C1CCC1C2CC[C@]2(C)C(=O)CCC12 (stereo partly specified) | 56 | 
21 | Cn1nnc2ccc(C(c3ccc(Cl)cc3)n3cncn3)cc21 (stereo not drawn) [rac-VOROZOLE] |  | IC50 (Aromatase [5]): 3 nM
22 | O=c1cc(-c2ccccc2)oc2c1ccc1ccc(O)cc12 | 5 | 
23 | CCC[C@]12CCC(=O)C=C1CCC1C2CC[C@]2(C)C(=O)CCC12 (stereo partly specified) | 3000 | 
24 | C[C@]12CCC(=O)C=C1C[C@@H](Sc1ccc(N=[N+]=[N-])cc1)C1C2CC[C@]2(C)C(=O)CCC12 (stereo partly specified) |  | kinact (Aromatase [3]): 0.00166 s⁻¹
25 | Aromatase (Homo sapiens) (protein) MVLEMLNPIHYNITSIVPEAMPAATMPVLLLTGLFLLVWNYEGTSSIPGPGYCMGIGPLISHGRFLWMGIGSACNYYNRVYGEFMRVWISGEETLIISKSSSMFHIMKHNHYSSRFGSKLGLQCIGMHEKGIIFNNNPELWKTTRPFFMKALSGPGLVRMVTVCAESLKTHLDRLEEVTNESGYVDVLTLLRRVMLDTSNTLFLRIPLDESAIVVKIQGYFDAWQALLIKPDIFFKISWLYKKYEKSVKDLKDAIEVLIAEKRRRISTEEKLEECMDFATELILAEKRGDLTRENVNQCILEMLIAAPDTMSVSLFFMLFLIAKHPNVEEAIIKEIQTVIGERDIKIDDIQKLKVMENFIYESMRYQPVVDLVMRKALEDDVIDGYPVKKGTNIILNIGRMHRLEFFPKPNEFTLENFAKNVPYRYFQPFGFGPRGCAGKYIAMVMMKAILVTLLRRFHVKTLQGQCVESIQKIHDLSLHPDETKNMLEMIFTPRNSDRCLEH |  | Km [6]: 0.21 µM; Km [7]: 0.06 µM; Km [8]: 58 µM; Km [9]: 0.03 µM

— ChEMBL document CHEMBL1124997, “Mechanism and inhibition of cytochrome P-450 aromatase” (J Med Chem, 1990)
